For assay [1], the system named is P. falciparum Dd2. In words: In vitro P. falciparum blood-stage culture and assay. As to conditions: 72 h incubation, SYBR Green I readout, read-out: Pf Dd2. Format: cell-based. As to the method:
Strains of P. falciparum (Dd2, 3D7, D6, K1, NF54, V1/3, HB3, 7G8, FCB and TM90C2B) were obtained from the Malaria Research and Reference Reagent Resource Center (MR4). P. falciparum isolates were maintained with O-positive human blood in an atmosphere of 93% N2, 4% CO2, 3% O2 at 37° C. in complete culturing medium (10.4 g/L RPMI 1640, 5.94 g/L HEPES, 5 g/L albumax II, 50 mg/L hypoxanthine, 2.1 g/L sodium bicarbonate, 10% human serum and 43 mg/L gentamicin). Parasites were cultured in medium until parasitaemia reached 3-8%. Parasitaemia was determined by checking at least 500 red blood cells from a Giemsa-stained blood smear. For the compound screening, a parasite dilution at 2.0% parasitaemia and 2.0% haematocrit was created with medium. 25 μl of medium was dispensed into 384-well black, clear-bottom plates and 100 nl of each compound in DMSO was transferred into assay plates along with the control compound (mefloquine). Next, 25 μl of the parasite suspension in medium was dispensed into the assay plates giving a final parasitaemia of 1% and a final haematocrit of 1%. The assay plates were incubated for 72 h at 37° C. 10 μl of detection reagent consisting of 10×SYBR Green I (Invitrogen; supplied in 10,000× concentration) in lysis buffer (20 mM Tris-HCl, 5 mM EDTA, 0.16% (w/v) Saponin, 1.6% (v/v) Triton X-100) was dispensed into the assay plates. For optimal staining, the assay plates were left at room temperature for 24 h in the dark. The assay plates were read with 505 dichroic mirrors with 485 nm excitation and 530 nm emission settings in an Envision (PerkinElmer).

Assay [2] relates to C. parvum. Put plainly: C. parvum in vitro EC50 assay. It is filed as cell-based. The conditions noted are these: Cryptosporidium parvum; C. parvum oocysts in HCT-8 cells. Here is the method: Human ileocecal adenocarcinoma (HCT-8) cells were obtained from ATCC and maintained in T-75 tissue culture flasks with RPMI 1640 medium with HEPES, sodium pyruvate (1 mM), and L-glutamine (ATCC) supplemented with 10% horse serum (ATCC) and 120 U/ml penicillin and 120 μg/ml streptomycin. Cells were plated into 384-well, tissue culture-treated, black-walled, clearbottom microwell plates (BD Falcon) at a density of 8,850 cells/well and allowed to grow to confluence. They were then inoculated with 5.5×10^3 primed C. parvum oocysts (Bunchgrass Farms, Deary, Id.) suspended in inoculation medium (RPMI 1640 without horse serum). Oocysts were primed for excystation by following a previously described protocol (J. Eukaryot. Microbiol. 46:56S-57S). Briefly, oocysts were treated for 10 min with 10 mM HCl at 37° C., centrifuged, and treated with a 2 mM solution of sodium taurocholate (Sigma-Aldrich) in phosphate-buffered saline (PBS) with Ca^2+ and Mg^2+. The suspension was incubated for 10 min at 16° C. and then diluted in inoculation medium and added to each well. Infected cells were incubated at 37° C. for 3 h, at which point an equal volume of growth medium containing 20% horse serum (total serum concentration of 10%). Compounds were diluted and assayed at fixed doses of 0.12, 0.37, 1.1, 3.3, and 10 μM (each concentration, n=14) for the generation of EC50 curves. In the case of final EC50 curves, three wells were left uninfected but treated with each of the corresponding concentrations of the compound to assess for background staining. All curves were generated using the log[inhibitor] versus response_variable slope equation in GraphPad Prism (equation 3), with the bottom constraint set equal to 0.

The mark [3] stands for this setting: Plasmodium falciparum, DD2, 72 h.

Read-outs that look alike come from different tables or passages of the source. Some results are limits rather than exact numbers.

As for `COc1ccc(NC(=O)N2CCC(CN(C)C)CN3[C@H](CO)[C@H](c4ccc(C#Cc5ccccc5)cc4)[C@@H]3C2)cc1` (stereo partly drawn) [Example E27, (8R,9R,10S)-3-[(dimethylamino)methyl]-10-(hydroxymethyl)-N-(4-methoxyphenyl)-9-[4-(2-phenylethynyl)phenyl]-1,6-diazabicyclo[6.2.0]decane-6-carboxamide], the EC50 in assay [1] (setting [3]) is below 50 nM; in assay [2], 134 nM. For `COc1ccc(NC(=O)N2CC[C@H](O)CN3[C@H](CN(C)C)[C@H](c4ccc(C#Cc5ccccc5)cc4)[C@@H]3C2)cc1` [Example E15, (3S,8R,9S,10S)-10-[(dimethylamino)methyl]-3-hydroxy-N-(4-methoxyphenyl)-9-[4-(2-phenylethynyl)phenyl]-1,6-diazabicyclo[6.2.0]decane-6-carboxamide] the same measures were below 50 nM and 33 nM. In the same order, the values of `COc1ccc(NC(=O)N2C/C=C\CN3[C@H](CN(C)C)[C@H](c4ccc(C#Cc5ccccc5)cc4)[C@@H]3C2)cc1` [Example E4, (3Z,8R,9S,10S)-10-[(dimethylamino)methyl]-N-(4-methoxyphenyl)-9-[4-(2-phenylethynyl)phenyl]-1,6-diazabicyclo[6.2.0]dec-3-ene-6-carboxamide] are below 50 nM and 68 nM. In the same order, the values of `COc1ccc(NC(=O)N2C[C@H](O)[C@H](O)CN3[C@H](CN(C)C)[C@H](c4ccc(C#Cc5ccccc5)cc4)[C@@H]3C2)cc1` [Example E6, (3R,4S,8R,9S,10S)-10-((dimethylamino)methyl)-3,4-dihydroxy-N-(4-methoxyphenyl)-9-(4-(phenylethynyl)phenyl)-1,6-diazabicyclo[6.2.0]decane-6-carboxamide] are below 50 nM and 95 nM. Take `COc1ccc(NC(=O)N2C[C@@H](O)[C@@H](O)CN3C[C@H](c4ccc(C#Cc5ccccc5)cc4)[C@@H]3C2)cc1` [Example E36, (3S,4R,8R,9S)-3,4-dihydroxy-N-(4-methoxyphenyl)-9-[4-(2-phenylethynyl)phenyl]-1,6-diazabicyclo[6.2.0]decane-6-carboxamide]: the EC50 in assay [1] (setting [3]) was 50 to 250 nM; in assay [2] it was 6 nM. For the compound `CN(C)C[C@@H]1[C@H](c2ccc(C#Cc3ccccc3)cc2)[C@@H]2CN(C(=O)Nc3ccc(OC4CC4)cc3)C[C@@H](O)[C@@H](O)CN12` (single isomer, unassigned) [Example E1], the EC50 in assay [1] (setting [3]) is below 50 nM. Take `COc1ccc(NC(=O)N2CCC(CO)CN3[C@H](CN(C)C)[C@H](c4ccc(C#Cc5ccccc5)cc4)[C@@H]3C2)cc1` (stereo partly drawn) [Example E26, (8R,9S,10S)-10-[(dimethylamino)methyl]-3-(hydroxymethyl)-N-(4-methoxyphenyl)-9-[4-(2-phenylethynyl)phenyl]-1,6-diazabicyclo[6.2.0]decane-6-carboxamide]: the EC50 in assay [1] (setting [3]) is below 50 nM; in assay [2], 98 nM. On to `COc1ccc(NC(=O)N2C[C@@H](O)[C@@H](O)CN3[C@H](CN(C)C(C)C)[C@H](c4ccc(C#Cc5ccccc5)cc4)[C@@H]3C2)cc1` [Example E10, (3S,4R,8R,9S,10S)-3,4-dihydroxy-10-[[isopropyl(methyl)amino]methyl]-N-(4-methoxyphenyl)-9-[4-(2-phenylethynyl)phenyl]-1,6-diazabicyclo[6.2.0]decane-6-carboxamide], for which the EC50 in assay [1] (setting [3]) is below 50 nM. Still for that read-out and setting: next, `COc1ccc(NC(=O)N2C[C@H](O)[C@H](O)CN3[C@H](CO)[C@H](c4ccc(C#Cc5cccnc5)cc4)[C@@H]3C2)cc1` [Example E23, (3R,4S,8R,9R,10S)-3,4-dihydroxy-10-(hydroxymethyl)-N-(4-methoxyphenyl)-9-(4-(pyridin-3-ylethynyl)phenyl)-1,6-diazabicyclo[6.2.0]decane-6-carboxamide]: 50 to 250 nM; `COc1ccc(NC(=O)N2C[C@@H](O)[C@@H](O)CN3[C@H](CN(C)C)[C@H](c4ccc(C#Cc5ccccc5)cc4)[C@@H]3C2)cc1` [Example E5, (3S,4R,8R,9S,10S)-10-((dimethylamino)methyl)-3,4-dihydroxy-N-(4-methoxyphenyl)-9-(4-(phenylethynyl)phenyl)-1,6-diazabicyclo[6.2.0]decane-6-carboxamide]: below 50 nM. Same read-out and setting: the value for `COc1ccc(NC(=O)N2C[C@@H](O)[C@@H](O)CN3[C@H](CN(C)C)[C@H](c4ccc(C#Cc5ccccc5F)cc4)[C@@H]3C2)cc1` [Example E7, (3S,4R,8R,9S,10S)-10-[(dimethylamino)methyl]-9-[4-[2-(2-fluorophenyl)ethynyl]phenyl]-3,4-dihydroxy-N-(4-methoxyphenyl)-1,6-diazabicyclo[6.2.0]decane-6-carboxamide] was below 50 nM.

Consider `COc1ccc(NC(=O)N2CCC(O)CN3[C@H](CN(C)C)[C@H](c4ccc(C#Cc5ccccc5)cc4)[C@@H]3C2)cc1` (single isomer, unassigned) [Example E16], for which the EC50 in assay [1] is above 250 nM. On to `CCN(CC)C[C@@H]1[C@H](c2ccc(C#Cc3ccccc3)cc2)[C@@H]2CN(C(=O)Nc3ccc(OC)cc3)C[C@@H](O)[C@@H](O)CN12` [Example E9, (3S,4R,8R,9S,10S)-10-(diethylaminomethyl)-3,4-dihydroxy-N-(4-methoxyphenyl)-9-[4-(2-phenylethynyl)phenyl]-1,6-diazabicyclo[6.2.0]decane-6-carboxamide], for which, in assay [1] (setting [3]), the EC50 is below 50 nM. The same measure, in the same setting: next, `COc1ccc(NC(=O)N2CC(CN(C)C)CCN3[C@H](CN(C)C)[C@H](c4ccc(C#Cc5ccccc5)cc4)[C@@H]3C2)cc1` (stereo partly drawn) [Example E32, (8R,9S,10S)-4,10-bis[(dimethylamino)methyl]-N-(4-methoxyphenyl)-9-[4-(2-phenylethynyl)phenyl]-1,6-diazabicyclo[6.2.0]decane-6-carboxamide]: above 250 nM; `COc1ccc(NC(=O)N2C[C@H](O)[C@H](O)CN3[C@H](CN(C)C(C)C)[C@H](c4ccc(C#Cc5ccccc5)cc4)[C@@H]3C2)cc1` [Example E11, (3R,4S,8R,9S,10S)-3,4-dihydroxy-10-[[isopropyl(methyl)amino]methyl]-N-(4-methoxyphenyl)-9-[4-(2-phenylethynyl)phenyl]-1,6-diazabicyclo[6.2.0]decane-6-carboxamide]: 50 to 250 nM; `COc1ccc(NC(=O)N2CC(CO)CCN3[C@H](CN(C)C)[C@H](c4ccc(C#Cc5ccccc5)cc4)[C@@H]3C2)cc1` (stereo partly drawn) [Example E33, (8R,9S,10S)-10-[(dimethylamino)methyl]-4-(hydroxymethyl)-N-(4-methoxyphenyl)-9-[4-(2-phenylethynyl)phenyl]-1,6-diazabicyclo[6.2.0]decane-6-carboxamide]: below 50 nM.

The record behind these values is US11174260B2, “Compounds and methods for the treatment of parasitic diseases” (THE BROAD INSTITUTE, INC., priority 2017, dated 2021).
